These are literature values, as cited in patent US9913840B2, “Formulations for aripiprazole delivery transdermally” (Corium International, Inc., priority 2015, dated 2018).

SMILES strings stand for the structures.

For the data set the following is noted: at room temperature.

Turning to `O=C1CCc2ccc(OCCCCN3CCN(c4cccc(Cl)c4Cl)CC3)cc2N1` [Aripiprazole], the aqueous solubility result is given as “less than 1 μg/mL”.
